Some test systems named below: EKVX NSCLC; MDA-MB-231 breast; NCI/ADR-RES ovarian; COLO 205 colon; HT29 colon; NCI-H460 lung; MALME-3M melanoma; SK-MEL-28 melanoma; OVCAR-8 ovarian; SW-620 colon; K-562 leukemia; M14 melanoma.
What all share (test): NCI-60 cell line screen, 48 h

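Dose response: 5 concentrations. Exposure: 48 h. Format: 96-well plates. Endpoint: linear interpolation; highest concentration if not reached. The concentration for full growth arrest is given as TGI.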

In the case of `CC[C@@]1(O)C(=O)OCc2c1cc1n(c2=O)Cc2c-1nc1ccccc1c2/C=N/NC(=O)c1ccc(N)cc1`, the TGI was above 100 µM in the test with EKVX NSCLC; above 100 µM in the test with MDA-MB-231 breast; above 37.8 µM in the test with NCI/ADR-RES ovarian; above 100 µM in the test with COLO 205 colon; above 100 µM in the test on HT29 colon; 15.2 µM in the test with NCI-H460 lung. The TGI is above 87.8 µM with MALME-3M melanoma; above 100 µM with SK-MEL-28 melanoma; above 100 µM with OVCAR-8 ovarian; above 100 µM in the test with SW-620 colon; above 31.6 µM with K-562 leukemia; 1.23 µM with M14 melanoma.

On to `CC(Cl)CC(=O)OCC1CCCN2CCCCC12` (stereo not drawn), for which the TGI in the test on EKVX NSCLC, with MDA-MB-231 breast, in the test on NCI/ADR-RES ovarian, in the test with COLO 205 colon, in the test on HT29 colon and in the test on NCI-H460 lung was above 100 µM each time. The TGI with MALME-3M melanoma, in the test on SK-MEL-28 melanoma, in the test with OVCAR-8 ovarian, in the test with SW-620 colon, in the test on K-562 leukemia and in the test on M14 melanoma was above 100 µM each time.

Consider `C=C1C[C@H](O)[C@H](Br)C(C)(C)C12CCC(C)(Cl)C(Br)C2` (stereo partly drawn), for which the TGI came to 1.61 µM in the test on EKVX NSCLC; 11.3 µM in the test with MDA-MB-231 breast; 20.7 µM with NCI/ADR-RES ovarian; 2.29 µM in the test with COLO 205 colon; 0.895 µM in the test on HT29 colon; 9.95 µM in the test on NCI-H460 lung. For the same molecule, the TGI in the test with MALME-3M melanoma was determined as 16.6 µM; in the test on SK-MEL-28 melanoma it was 19 µM; in the test with OVCAR-8 ovarian, 15.1 µM; with SW-620 colon, 20.4 µM; with K-562 leukemia, 56.2 µM; in the test with M14 melanoma, 13.3 µM.

For the molecule `CCOc1ccc(N/C(=C(/C(Cl)=C(/Cl)NC(C)(C)C)[N+](=O)[O-])n2nnc3ccccc32)cc1`, the TGI in the test on EKVX NSCLC was above 100 µM; with MDA-MB-231 breast, 37.6 µM; in the test on NCI/ADR-RES ovarian, above 100 µM; with COLO 205 colon it was 36.1 µM; in the test with HT29 colon, above 100 µM; in the test with NCI-H460 lung, above 100 µM. Further, the TGI was 33.3 µM with MALME-3M melanoma; 38.8 µM with SK-MEL-28 melanoma; 32.3 µM in the test on OVCAR-8 ovarian; 41.9 µM in the test on SW-620 colon; above 100 µM in the test on K-562 leukemia; above 100 µM with M14 melanoma.

With `O=C(c1cc2c(c3ccccc13)NC1(CCCCC1)N=C2C(F)(F)F)C(F)(F)F`, the TGI with EKVX NSCLC came out at 15.7 µM; in the test on MDA-MB-231 breast, 9.83 µM; in the test on NCI/ADR-RES ovarian, 17 µM; in the test on COLO 205 colon, 18.1 µM; in the test on HT29 colon it was 13.4 µM; in the test with NCI-H460 lung it was 10.9 µM. The TGI amounted to 17.4 µM in the test with MALME-3M melanoma; 22.6 µM in the test on SK-MEL-28 melanoma; 15.8 µM in the test on OVCAR-8 ovarian; 18.7 µM with SW-620 colon; 16.8 µM in the test with K-562 leukemia; 18.1 µM in the test on M14 melanoma.

In the case of `CC(C)N(C(C)C)S(=O)(=O)C[C@]12CC[C@H](CC13OCC(CS(=O)(=O)c1ccccc1)O3)C2(C)C` (stereo partly drawn), the TGI with EKVX NSCLC is above 100 µM; in the test on MDA-MB-231 breast it was above 100 µM; in the test with NCI/ADR-RES ovarian, above 100 µM; in the test with COLO 205 colon, 34.8 µM; in the test on HT29 colon it was above 100 µM; in the test with NCI-H460 lung, above 100 µM. Moreover, the TGI with MALME-3M melanoma, in the test on SK-MEL-28 melanoma, in the test on OVCAR-8 ovarian, in the test on SW-620 colon, with K-562 leukemia and in the test with M14 melanoma was above 100 µM in each case.

With `O=C(N/N=C/c1ccccc1)c1cccc2nc3ccccc3nc12`, the TGI is above 100 µM in the test with EKVX NSCLC; above 100 µM in the test with MDA-MB-231 breast; above 100 µM in the test on NCI/ADR-RES ovarian; 18 µM in the test on COLO 205 colon; above 100 µM in the test on HT29 colon; 31.4 µM in the test on NCI-H460 lung. Moreover, the TGI with MALME-3M melanoma, in the test on SK-MEL-28 melanoma, with OVCAR-8 ovarian, in the test on SW-620 colon, in the test on K-562 leukemia and with M14 melanoma was above 100 µM each time.

`CCOC(=O)NN(C(=O)OCC)c1c(C)cc(C)cc1C`: the TGI with EKVX NSCLC, with MDA-MB-231 breast, with NCI/ADR-RES ovarian, with COLO 205 colon, with HT29 colon and in the test with NCI-H460 lung was above 100 µM throughout. In addition, the TGI in the test on MALME-3M melanoma, in the test with SK-MEL-28 melanoma, in the test with OVCAR-8 ovarian, with SW-620 colon, in the test on K-562 leukemia and in the test with M14 melanoma was above 100 µM throughout.

For `CCOC(=O)c1c(NC(=S)Nc2ccccc2)sc2c1CCOC2`, the TGI with EKVX NSCLC, with MDA-MB-231 breast, with NCI/ADR-RES ovarian, in the test with COLO 205 colon, in the test on HT29 colon and in the test on NCI-H460 lung was above 100 µM in each case. Also, the TGI in the test with MALME-3M melanoma, with SK-MEL-28 melanoma, with OVCAR-8 ovarian, in the test on SW-620 colon, with K-562 leukemia and with M14 melanoma was above 100 µM in each case.

The record behind these values is PubChem BioAssay (NCI).
